Here are results for 18 molecules from patent US20080161232A1, “C5a Receptor Antagonist” (JERINI AG, priority 2005, published 2008).

pIC50: −log10 of the molar value. Starred links: 1 amine or outer side, 2 acyl side, 3 side chain; linkers in the order of their positions; H or OH if unused. Positions of bridges follow the written chain, without caps; N, C: chain ends. Non-standard residues stand in square brackets, D forms with d. Residues, ends and D or L forms follow the SMILES beside them. ξ: configuration not given here. *: point of attachment. Phe(4-guanidino) = N=C(N)Nc1ccc(C[C@H](N)C(=O)O)cc1; Phe(3-Cl) = N[C@@H](Cc1cccc(Cl)c1)C(=O)O; Phe(4-Cl) = N[C@@H](Cc1ccc(Cl)cc1)C(=O)O; Phe(3-Me) = Cc1cccc(C[C@H](N)C(=O)O)c1; Phe(4-F) = N[C@@H](Cc1ccc(F)cc1)C(=O)O; Phe(2-F) = N[C@@H](Cc1ccccc1F)C(=O)O; X11 = N=C(N)N[C@@H](Cc1ccccc1)C(=O)*; Bta = N[C@@H](Cc1csc2ccccc12)C(=O)O; d(hCha) = N[C@H](CCC1CCCCC1)C(=O)O; Hyp = O=C(O)[C@@H]1C[C@@H](O)CN1; d(hLeu) = CC(C)CC[C@@H](N)C(=O)O; ξNip = O=C(C1CCCN([*:1])C1)[*:2]; Cit = NC(=O)NCCC[C@H](N)C(=O)O; dCha = N[C@H](CC1CCCCC1)C(=O)O; dChg = N[C@@H](C(=O)O)C1CCCCC1; Agb = N=C(N)NCC[C@H](N)C(=O)O; Butoxycarbonyl = CCCCOC(=O)*; Nle = CCCC[C@H](N)C(=O)O; Orn = NCCC[C@H](N)C(=O)O; Aze = O=C(O)[C@@H]1CCN1; X16 = c1ccc(C*)nc1

The first assay deals with T1, human C5aR(CD88) (Homo sapiens, UniProt P21730).
T1 construct: expressed in transfected cells; host or cells: rat basophilic leukemia cells (RBL)
T1 sequence (P21730 1-350): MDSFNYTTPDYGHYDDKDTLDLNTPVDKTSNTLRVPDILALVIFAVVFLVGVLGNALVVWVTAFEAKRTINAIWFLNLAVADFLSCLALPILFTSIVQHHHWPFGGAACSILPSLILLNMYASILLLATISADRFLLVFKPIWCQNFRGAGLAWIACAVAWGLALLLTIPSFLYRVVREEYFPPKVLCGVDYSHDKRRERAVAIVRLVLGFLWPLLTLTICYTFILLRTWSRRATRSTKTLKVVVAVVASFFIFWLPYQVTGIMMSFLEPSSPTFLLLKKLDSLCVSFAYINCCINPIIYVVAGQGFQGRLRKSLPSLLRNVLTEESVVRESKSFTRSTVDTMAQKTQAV
The experiment in a line: Determination of the IC50 value in an enzyme release assay (functional assay, antagonistic activity). It counts as cell-based. Particulars: antagonistic activity; IC50 group in enzyme release assay, RBL cells expressing human C5aR(CD88); read-out: activity (group).
In the case of `CC(=O)N[C@@H](Cc1ccccc1)C(=O)N[C@H]1CCCNC(=O)[C@H](CSCc2ccccn2)NC(=O)[C@H](Cc2c[nH]c3ccccc23)NC(=O)[C@@H](CC2CCCCC2)NC(=O)[C@@H]2CCCN2C1=O` [compound 18] (Ac-F[Orn]P[dCha]WC(X16); lactam 2-C), the pIC50 was 5.70 to 6.70.

On to `CC(=O)N[C@@H](Cc1ccccc1)C(=O)N[C@H]1CCCNC(=O)[C@H](Cc2ccccc2)NC(=O)[C@H](Cc2c[nH]c3ccccc23)NC(=O)[C@H](Cc2cccc(C)c2)NC(=O)[C@@H]2C[C@@H](O)CN2C1=O` [Compound 183, Ac-Phe-[Orn-Hyp-Mmf-Trp-Phe]] (Ac-F[Orn][Hyp][Phe(3-Me)]WF; lactam 2-C), for which the pIC50 was 6.70 to 7.30.

On to `CC(=O)N[C@@H](Cc1ccccc1)C(=O)N[C@H]1CCCNC(=O)[C@H](Cc2ccc(NC(=N)N)cc2)NC(=O)[C@H](Cc2c[nH]c3ccccc23)NC(=O)[C@@H](CC2CCCCC2)NC(=O)[C@@H]2CCCN2C1=O` [compound 9] (Ac-F[Orn]P[dCha]W[Phe(4-guanidino)]; lactam 2-C), for which the pIC50 is 5.70 to 6.70.

Regarding `CCCC[C@@H]1NC(=O)[C@H](Cc2ccc(F)cc2)NC(=O)[C@@H](CCC(C)C)NC(=O)[C@@H]2CCCN2C(=O)[C@@H](NC(=O)[C@H](Cc2ccccc2)NC(=N)N)CCCNC1=O` [Compound 338, Fhu-Phe-[Orn-Pro-hle-Pff-Nle]] (X11-[Orn]P[d(hLeu)][Phe(4-F)][Nle]; lactam 1-C), the pIC50 was 6.70 to 7.30.

For `CC(=O)N[C@@H](Cc1ccccc1)C(=O)N[C@@H](CCCN)C(=O)N1CCC[C@H]1C(=O)N[C@H](CC1CCCCC1)C(=O)N[C@@H](Cc1csc2ccccc12)C(=O)N[C@@H](Cc1ccc(Cl)cc1)C(N)=O` [Compound 259, Ac-Phe-Orn-Pro-cha-Bta-Pcf-NH2] (Ac-F[Orn]P[dCha][Bta][Phe(4-Cl)]-NH2), the pIC50 is 7.30 to 7.70.

As for `CC(=O)N[C@@H](Cc1ccccc1)C(=O)N[C@@H](Cc1c[nH]c2ccccc12)C(=O)N1CCC[C@H]1C(=O)N[C@H](CC1CCCCC1)C(=O)N[C@@H](Cc1csc2ccccc12)C(=O)N[C@@H](Cc1ccccc1)C(N)=O` [Compound 113, Ac-Phe-Trp-Pro-cha-Bta-Phe-NH2] (Ac-FWP[dCha][Bta]F-NH2), the pIC50 is 6.70 to 7.30.

Turning to `CC(=O)N[C@@H](Cc1ccccc1)C(=O)N[C@@H](CCCN)C(=O)N1CCC[C@H]1C(=O)N[C@@H](C(=O)N[C@@H](Cc1c[nH]c2ccccc12)C(=O)N[C@@H](Cc1ccccc1)C(N)=O)C1CCCCC1` [Compound 109, Ac-Phe-Orn-Pro-chg-Trp-Phe-NH2] (Ac-F[Orn]P[dChg]WF-NH2), the pIC50 was 6.70 to 7.30.

`CCCC[C@@H]1NC(=O)[C@H](Cc2c[nH]c3ccccc23)NC(=O)[C@@H](CC2CCCCC2)NC(=O)[C@@H]2C[C@@H](O)CN2C(=O)[C@@H](NC(=O)[C@H](Cc2ccccc2)NC(C)=O)CCCNC1=O` [Compound 144, Ac-Phe-[Orn-Hyp-cha-Trp-Nle]] (Ac-F[Orn][Hyp][dCha]W[Nle]; lactam 2-C): the pIC50 is 7.70 to 8.00.

Turning to `CC(=O)N[C@@H](Cc1ccccc1)C(=O)N[C@@H](CCNC(=N)N)C(=O)N1CCC[C@H]1C(=O)N[C@H](CC1CCCCC1)C(=O)N[C@@H](Cc1csc2ccccc12)C(=O)N[C@@H](Cc1ccccc1)C(N)=O` [Compound 231, Ac-Phe-L22-Pro-cha-Bta-Phe-NH2] (Ac-F[Agb]P[dCha][Bta]F-NH2), the pIC50 is 7.70 to 8.00.

Take `CC(=O)N[C@@H](Cc1ccccc1F)C(=O)N[C@@H](CCCN)C(=O)N1CCC[C@H]1C(=O)N[C@H](CCC(C)C)C(=O)N[C@@H](Cc1csc2ccccc12)C(=O)N[C@@H](Cc1ccccc1)C(N)=O` [Compound 167, Ac-Off-Orn-Pro-hle-Bta-Phe-NH2] (Ac-[Phe(2-F)][Orn]P[d(hLeu)][Bta]F-NH2): the pIC50 is 7.30 to 7.70.

In the case of `CC(C)CC[C@@H](NC(=O)[C@@H]1CCCN1C(=O)[C@H](CCCNC(N)=O)NC(=O)[C@H](Cc1ccccc1)NC(=O)C1CCCNC1)C(=O)N[C@@H](Cc1csc2ccccc12)C(=O)N[C@@H](Cc1ccccc1)C(N)=O` (stereo partly drawn) [Compound 346, H-Nip-Phe-Cit-Pro-hle-Bta-Phe-NH2] (ξNip-F[Cit]P[d(hLeu)][Bta]F-NH2), the pIC50 was 6.70 to 7.30.

Turning to `CC(=O)N[C@@H](Cc1ccccc1)C(=O)N[C@@H](CCCNC(N)=O)C(=O)N1CCC[C@H]1C(=O)N[C@H](CC1CCCCC1)C(=O)N[C@@H](Cc1csc2ccccc12)C(=O)N[C@@H](Cc1ccccc1)C(N)=O` [Compound 210, Ac-Phe-Cit-Pro-cha-Bta-Phe-NH2] (Ac-F[Cit]P[dCha][Bta]F-NH2), the pIC50 is 6.70 to 7.30.

Regarding `CCSC[C@@H]1NC(=O)[C@H](Cc2c[nH]c3ccccc23)NC(=O)[C@@H](CC2CCCCC2)NC(=O)[C@@H]2CCCN2C(=O)[C@@H](NC(=O)[C@H](Cc2ccccc2)NC(C)=O)CCCNC1=O` [Compound 34, Ac-Phe-[Orn-Pro-cha-Trp-Ebd]] (Ac-F[Orn]P[dCha]WC(Et); lactam 2-C), the pIC50 was 7.30 to 7.70.

`CC(C)CC[C@H]1NC(=O)[C@@H]2CCCN2C(=O)[C@@H](NC(=O)[C@@H](N)Cc2ccccc2)CCCNC(=O)[C@H](Cc2ccccc2)NC(=O)[C@H](Cc2ccc(F)cc2)NC1=O` [Compound 380, H-Phe-[Orn-Pro-hle-Pff-Phe]] (H-F[Orn]P[d(hLeu)][Phe(4-F)]F; lactam 2-C): the pIC50 was 7.30 to 7.70.

As to `CCCCOC(=O)N[C@@H](Cc1ccccc1)C(=O)N[C@@H](CCCN)C(=O)N1CCC[C@H]1C(=O)N[C@H](CC1CCCCC1)C(=O)N[C@@H](Cc1c[nH]c2ccccc12)C(=O)N[C@@H](Cc1ccccc1)C(N)=O` [Compound 86, Bu-O—CO-Phe-Orn-Pro-cha-Trp-Phe-NH2] (Butoxycarbonyl-F[Orn]P[dCha]WF-NH2), the pIC50 is 5.70 to 6.70.

Regarding `CC(=O)NCC(=O)N[C@@H](Cc1ccccc1)C(=O)N[C@@H](CCCN)C(=O)N1CC[C@H]1C(=O)N[C@H](CCC1CCCCC1)C(=O)N[C@@H](Cc1csc2ccccc12)C(=O)N[C@@H](Cc1ccccc1)C(N)=O` [Compound 156, Ac-Gly-Phe-Orn-Aze-hch-Bta-Phe-NH2] (Ac-GF[Orn][Aze][d(hCha)][Bta]F-NH2), the pIC50 was 6.70 to 7.30.

With `CC(=O)N[C@@H](Cc1ccccc1)C(=O)N[C@H]1CCCNC(=O)[C@H](Cc2ccccc2)NC(=O)[C@H](Cc2ccc(F)cc2)NC(=O)[C@@H](CCC(C)C)NC(=O)[C@@H]2C[C@@H](O)CN2C1=O` [Compound 180, Ac-Phe-[Orn-Hyp-hle-Pff-Phe]] (Ac-F[Orn][Hyp][d(hLeu)][Phe(4-F)]F; lactam 2-C), the pIC50 is 6.70 to 7.30.

Take `CC(=O)N[C@@H](Cc1ccc(F)cc1)C(=O)N[C@@H](CCCN)C(=O)N1CCC[C@H]1C(=O)N[C@H](CCC(C)C)C(=O)N[C@@H](Cc1cccc(Cl)c1)C(=O)N[C@@H](Cc1ccc(F)cc1)C(N)=O` [Compound 171, Ac-Pff-Orn-Pro-hle-Mcf-Pff-NH2] (Ac-[Phe(4-F)][Orn]P[d(hLeu)][Phe(3-Cl)][Phe(4-F)]-NH2): the pIC50 was 6.70 to 7.30.

Staying with this assay, now noted: functional assay of example 11; noteworthy = IC50 less than 200 nM.
Regarding `CCSC[C@@H]1NC(=O)[C@H](Cc2c[nH]c3ccccc23)NC(=O)[C@@H](CC2CCCCC2)NC(=O)[C@@H]2CCCN2C(=O)[C@@H](NC(=O)[C@H](Cc2ccccc2)NC(C)=O)CCCNC1=O` [Compound 34, Ac-Phe-[Orn-Pro-cha-Trp-Ebd]] (Ac-F[Orn]P[dCha]WC(Et); lactam 2-C), the “inhibitory activity (in words)” value is recorded as “without significant loss of activity”.

Still in this assay, the particulars now being: functional assay of example 11; noteworthy = IC50 less than 200 nM; listed as Ac-Phe-[Orn-Pro-cha-Trp-Ebd].
Take `CCSC[C@@H]1NC(=O)[C@H](Cc2c[nH]c3ccccc23)NC(=O)[C@@H](CC2CCCCC2)NC(=O)[C@@H]2CCCN2C(=O)[C@@H](NC(=O)[C@H](Cc2ccccc2)NC(C)=O)CCCNC1=O` [Compound 34, Ac-Phe-[Orn-Pro-cha-Trp-Ebd]] (Ac-F[Orn]P[dCha]WC(Et); lactam 2-C): the “inhibitory activity (in words)” value was “noteworthy inhibitory activity”.
